Reference: BindingDB's records for patent US20250145606 (Arcus Biosciences, 2025)

Experiments:
Experiment in all cases: Inhibition of c-Kit, PDGFRα, PDGFRβ, CSFIR and FLT3 Kinase Activity Assay
[1] = biological target: Platelet-derived growth factor receptor beta (Homo sapiens, UniProt P09619)
Procedure: (§1) On the day of the assay, compounds were solubilized in DMSO and dispensed into a 384-well white Opti-plate (PerkinElmer, catalog #6007290) to generate a 22 point 1:2 titration. Enzyme solution was prepared for each of the tyrosine kinases in 50 mM HEPES, pH 7.4, 5 mM MgCl2 for c-Kit or 10 mM MgCl2 for FLT3, CSFIR, PDGFRa and PDGFRβ, 2 mM MnCl2, 0.01% Brij-35 and 0.01% BSA. Working enzyme concentrations were prepared for c-Kit at 2 nM (2×), PDGFRa and PDGFR at 10 nM (2×), CSFIR at 2 nM (2×) and FLT3 at 0.4 nM (2×). Five microliters of enzyme dilution of each tyrosine kinase were added to their respective 384-well white Opti-plate pre-dispensed with compound and allowed to incubate for 1 h at rt. Utilizing the same enzyme buffer recipe, 2x substrate mixes were prepared for each enzyme as follows: For c-Kit, 1.6 μM (2×) TK substrate and 16 μM (2×) ATP (Promega, catalog #V915). For PDGFRα, 3.2 μM TK substrate and 1 μM ATP. For PDGFRβ, 3.2 μM TK substrate and 40 μM ATP. For CSFIR, […] TK substrate and 20 μM ATP. For FLT3, 3.2 μM TK substrate and 100 μM ATP. Reactions were initiated by addition of 5 μL of the respective 2x substrate mix to each well of the plates containing the respective tyrosine kinase enzymes and were allowed to proceed for 120 minutes at rt, except for FLT3, the reaction time is 45 min. Following the reaction, 10 μL of detection mix consisting of 0.2 μM (2×) of Streptavidin-XL665 and 2 μM (2×) of TK-Antibody-Cryptate prepared in detection buffer (Part 62SDBRDF of KinEASE assay kit) was added and then allowed to incubate for 60 min. The TR-FRET signal was quantified by measuring the ratio of emission at 665 nm to 620 nm after excitation at 320 nm by reading on a PerkinElmer Envision multimode reader. Compound potencies (IC50 values) were determined using a standard 4-parameter non-linear regression fit.

[2] = biological target: Mast/stem cell growth factor receptor Kit (Homo sapiens, UniProt P10721)
Procedure: as §1

[3] = biological target: Platelet-derived growth factor receptor alpha (Homo sapiens, UniProt P16234)
Procedure: as §1

[4] = biological target: Macrophage colony-stimulating factor 1 receptor (Homo sapiens, UniProt P07333)
Procedure: as §1

Sequence of Platelet-derived growth factor receptor beta (P09619 whole entry): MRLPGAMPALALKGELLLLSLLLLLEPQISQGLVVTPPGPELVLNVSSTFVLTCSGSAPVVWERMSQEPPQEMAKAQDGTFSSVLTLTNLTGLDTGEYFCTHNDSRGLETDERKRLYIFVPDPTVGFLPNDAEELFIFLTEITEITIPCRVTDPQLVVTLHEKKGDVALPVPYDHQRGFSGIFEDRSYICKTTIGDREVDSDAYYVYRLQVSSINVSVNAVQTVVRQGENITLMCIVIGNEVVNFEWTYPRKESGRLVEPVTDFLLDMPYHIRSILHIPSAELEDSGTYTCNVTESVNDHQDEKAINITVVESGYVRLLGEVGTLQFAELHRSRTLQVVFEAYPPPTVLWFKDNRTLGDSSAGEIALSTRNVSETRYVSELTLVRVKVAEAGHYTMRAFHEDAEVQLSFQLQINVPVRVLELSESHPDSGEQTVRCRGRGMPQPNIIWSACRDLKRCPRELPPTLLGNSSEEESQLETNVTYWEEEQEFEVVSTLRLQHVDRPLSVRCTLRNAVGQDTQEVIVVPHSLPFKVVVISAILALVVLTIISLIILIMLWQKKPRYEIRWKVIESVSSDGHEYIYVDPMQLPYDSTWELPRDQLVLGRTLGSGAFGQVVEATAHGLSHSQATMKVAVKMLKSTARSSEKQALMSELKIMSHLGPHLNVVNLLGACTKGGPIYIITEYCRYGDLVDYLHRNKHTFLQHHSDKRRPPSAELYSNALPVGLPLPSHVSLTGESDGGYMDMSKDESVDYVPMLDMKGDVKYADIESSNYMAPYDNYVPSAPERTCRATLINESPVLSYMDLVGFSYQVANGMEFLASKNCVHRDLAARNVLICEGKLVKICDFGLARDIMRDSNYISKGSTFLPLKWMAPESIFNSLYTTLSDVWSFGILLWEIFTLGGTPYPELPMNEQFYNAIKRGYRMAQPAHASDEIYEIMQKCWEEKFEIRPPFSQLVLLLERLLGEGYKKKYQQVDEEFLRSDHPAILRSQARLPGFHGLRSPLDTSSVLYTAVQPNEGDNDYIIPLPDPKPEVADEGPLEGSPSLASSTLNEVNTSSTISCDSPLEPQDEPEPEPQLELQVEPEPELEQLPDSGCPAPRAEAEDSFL
Sequence of Platelet-derived growth factor receptor alpha (P16234 whole entry): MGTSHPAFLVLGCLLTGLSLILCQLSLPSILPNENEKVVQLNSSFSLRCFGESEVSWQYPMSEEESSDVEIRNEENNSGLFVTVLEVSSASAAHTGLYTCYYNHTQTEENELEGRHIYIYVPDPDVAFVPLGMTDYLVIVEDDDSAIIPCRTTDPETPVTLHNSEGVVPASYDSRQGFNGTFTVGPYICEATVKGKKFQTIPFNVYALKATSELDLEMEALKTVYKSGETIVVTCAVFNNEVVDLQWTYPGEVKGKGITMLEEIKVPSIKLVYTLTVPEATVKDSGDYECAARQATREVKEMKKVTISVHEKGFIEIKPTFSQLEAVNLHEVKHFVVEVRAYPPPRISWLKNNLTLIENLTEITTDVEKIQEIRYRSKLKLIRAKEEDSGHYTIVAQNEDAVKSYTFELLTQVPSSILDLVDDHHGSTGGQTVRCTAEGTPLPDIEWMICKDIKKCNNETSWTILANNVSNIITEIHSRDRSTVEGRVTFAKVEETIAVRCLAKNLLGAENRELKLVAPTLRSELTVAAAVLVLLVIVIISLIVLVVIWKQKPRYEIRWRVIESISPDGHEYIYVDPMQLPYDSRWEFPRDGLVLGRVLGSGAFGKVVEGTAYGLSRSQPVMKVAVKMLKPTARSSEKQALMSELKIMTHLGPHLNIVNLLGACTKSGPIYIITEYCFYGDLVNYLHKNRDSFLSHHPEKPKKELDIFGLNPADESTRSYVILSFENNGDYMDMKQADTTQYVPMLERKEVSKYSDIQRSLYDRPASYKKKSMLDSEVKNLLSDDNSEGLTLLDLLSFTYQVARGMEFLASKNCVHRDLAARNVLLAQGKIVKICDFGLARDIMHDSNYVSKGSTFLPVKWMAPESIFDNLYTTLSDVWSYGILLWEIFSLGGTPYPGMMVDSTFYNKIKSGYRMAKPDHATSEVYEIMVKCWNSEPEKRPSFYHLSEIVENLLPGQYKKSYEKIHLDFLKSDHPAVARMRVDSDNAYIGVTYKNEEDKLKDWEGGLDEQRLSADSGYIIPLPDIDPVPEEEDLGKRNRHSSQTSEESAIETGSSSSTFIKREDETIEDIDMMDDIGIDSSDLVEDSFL
Sequence of Macrophage colony-stimulating factor 1 receptor (P07333 whole entry): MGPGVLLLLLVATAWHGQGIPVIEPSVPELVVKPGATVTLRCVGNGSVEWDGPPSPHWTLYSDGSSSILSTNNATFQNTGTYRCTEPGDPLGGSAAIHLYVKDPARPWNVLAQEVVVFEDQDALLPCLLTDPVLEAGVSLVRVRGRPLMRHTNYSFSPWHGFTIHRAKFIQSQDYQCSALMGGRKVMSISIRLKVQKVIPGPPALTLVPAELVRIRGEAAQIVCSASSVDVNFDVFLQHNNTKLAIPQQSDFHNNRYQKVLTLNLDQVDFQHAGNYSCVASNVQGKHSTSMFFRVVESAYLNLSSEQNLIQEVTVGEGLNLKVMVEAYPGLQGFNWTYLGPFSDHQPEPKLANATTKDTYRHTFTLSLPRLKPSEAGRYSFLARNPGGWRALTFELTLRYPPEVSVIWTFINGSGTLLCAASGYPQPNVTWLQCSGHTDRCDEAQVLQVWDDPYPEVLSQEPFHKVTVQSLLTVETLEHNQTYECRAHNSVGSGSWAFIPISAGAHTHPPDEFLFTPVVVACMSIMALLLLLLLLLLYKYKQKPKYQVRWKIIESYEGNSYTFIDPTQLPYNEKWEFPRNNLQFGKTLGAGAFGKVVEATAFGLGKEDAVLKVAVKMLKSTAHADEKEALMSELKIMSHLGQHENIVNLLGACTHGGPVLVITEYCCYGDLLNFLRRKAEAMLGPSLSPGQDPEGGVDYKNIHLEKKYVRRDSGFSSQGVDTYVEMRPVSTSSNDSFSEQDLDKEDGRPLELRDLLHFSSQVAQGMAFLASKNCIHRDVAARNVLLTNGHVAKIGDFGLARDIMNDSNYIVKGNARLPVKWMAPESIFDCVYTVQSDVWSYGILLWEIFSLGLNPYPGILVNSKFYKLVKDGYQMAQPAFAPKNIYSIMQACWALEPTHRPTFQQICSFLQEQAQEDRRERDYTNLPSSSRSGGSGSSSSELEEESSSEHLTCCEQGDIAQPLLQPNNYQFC
Sequence of Mast/stem cell growth factor receptor Kit (P10721 whole entry): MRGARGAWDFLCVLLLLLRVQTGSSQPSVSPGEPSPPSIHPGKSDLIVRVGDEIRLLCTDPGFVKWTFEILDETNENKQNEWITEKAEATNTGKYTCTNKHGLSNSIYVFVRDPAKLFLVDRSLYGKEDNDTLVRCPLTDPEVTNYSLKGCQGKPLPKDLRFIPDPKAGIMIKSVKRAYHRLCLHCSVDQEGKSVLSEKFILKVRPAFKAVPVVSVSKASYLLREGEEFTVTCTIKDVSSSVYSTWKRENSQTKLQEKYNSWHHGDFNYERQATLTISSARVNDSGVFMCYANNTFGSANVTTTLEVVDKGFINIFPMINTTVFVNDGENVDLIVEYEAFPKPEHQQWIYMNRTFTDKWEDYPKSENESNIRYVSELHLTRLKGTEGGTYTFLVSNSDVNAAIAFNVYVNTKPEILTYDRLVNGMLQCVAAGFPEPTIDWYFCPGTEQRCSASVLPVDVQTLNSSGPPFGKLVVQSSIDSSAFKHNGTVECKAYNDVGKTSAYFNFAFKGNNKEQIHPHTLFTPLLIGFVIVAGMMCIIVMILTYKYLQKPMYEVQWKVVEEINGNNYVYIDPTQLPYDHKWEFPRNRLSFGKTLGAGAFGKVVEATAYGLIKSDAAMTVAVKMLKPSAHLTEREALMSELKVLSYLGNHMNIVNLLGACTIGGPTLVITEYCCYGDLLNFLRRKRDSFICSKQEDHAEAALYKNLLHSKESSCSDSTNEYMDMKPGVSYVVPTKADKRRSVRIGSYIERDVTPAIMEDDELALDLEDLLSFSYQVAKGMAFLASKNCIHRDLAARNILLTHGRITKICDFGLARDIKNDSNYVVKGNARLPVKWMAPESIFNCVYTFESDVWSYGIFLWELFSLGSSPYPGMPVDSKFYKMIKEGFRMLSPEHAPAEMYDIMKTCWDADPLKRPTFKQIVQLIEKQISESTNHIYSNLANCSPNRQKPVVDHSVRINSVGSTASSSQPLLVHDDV

SMILES: Cc1cc(F)c(C(=O)Nc2cn[nH]c2)cc1NC(=O)c1cnc(N)s1 [US20250145606, Example 157]
- IC50 [1]: > 1 µM
- IC50 [2]: < 0.1 µM
- IC50 [3]: > 1 µM
- IC50 [4]: > 1 µM

SMILES: Cc1ncc(C(=O)Nc2cc(C(=O)NCc3cccnc3)c(F)cc2C)s1 [US20250145606, Example 12]
- IC50 [1]: > 1 µM
- IC50 [3]: > 1 µM
- IC50 [4]: > 1 µM
